Measurements taken from patent US4260629A, “Treating pain with acetaminophen and 1,4-dimethyl-5-p-chlorobenzoyl-pyrrole-2-acetic acid” (E. I. Du Pont de Nemours and Company, priority 1979, dated 1981).

Columns and labels:
[1] = system: phenyl-p-benzoquinone induced writhing; experiment: mouse antiphenylquinone writhing test (prevention of phenyl-p-benzoquinone induced writhing; oral analgesic activity); type: in vivo, mouse (male CF1)
Protocol: Male CF1 mice obtained from Charles River Breeding Laboratories, fasted for 16-22 hours, and weighing 18-22 g at the time of testing are used throughout. All mice are dosed orally with acetaminophen and/or zomepirac (calculated as the sodium salt) dissolved completely in distilled water containing as vehicle 2% by volume of Tween 80®, a pharmacological dispersant manufactured by Fisher Scientific Company and containing 100% polysorbate 80. A dosing volume of 20 ml/kg is used. All doses are coded and the test is performed under a code not known to the observer.
A standard procedure for detecting and comparing the analgesic activity of different classes of analgesia drugs for which there is a good correlation with human efficacy is the prevention of phenyl-p-benzoquinone induced writhing in mice (H. Blumberg et al.; Proc. Soc. Exp. Biol. Med. 118, 763-766, 1965).
Mice, intubated with various doses of sodium zomepirac, acetaminophen, combined doses of sodium zomepirac and acetaminophen, or vehicle, are injected intraperitoneally with a challenge dose of phenyl-p-benzoquinone.The phenyl-p-benzoquinone is prepared as a 0.1 mg/ml solution in 5% by volume of ethanol in water; the writhing dose is 1.25 mg/kg injected at the rate of 0.25 ml/20 g. For scoring purposes a "writhe" is indicated by whole body stretching or contraction of the abdomen: mice are observed 10 minutes for the presence or absence of writhing beginning 5 minutes after receiving the phenyl-p-benzoquinone dose. Each mouse is used only once, then discarded.
In order to study the interaction between zomepirac and acetaminophen, precise dosage ratios of sodium zomepirac and acetaminophen are selected. Four to five coded doses of each selected combination are studied for analgesic effectiveness at 10 minutes using an experimental design which permits complete randomization of the separate dosage forms tested. Altogether 25 separate dosage forms are used and each form is represented in each experimental session. The experiments are continued by running experimental sessions with an equal number of mice being tested for each dosage group until the total number, N, of mice tested per group is 20.
In the drawing, the diagonal line joining the ED50 values of the two drugs given separately represents simple additivity of drug effects. The dashed lines on each side of the diagonal line give the 95% confidence limits for this line of additivity. […] The 3 diagonal lines radiating from the origin represent the dose ratios of sodium zomepirac to acetaminophen used in mice receiving the combined drug dosages.

[2] = system: phenyl-p-benzoquinone induced writhing; experiment: as above; type: in vivo, mouse (male CF1); details: 10 min, preliminary experiment, 95% confidence limits 0.80-1.69 (sodium zomepirac), 166-281 (acetaminophen)

Compound | ED50 at 10 Min. (95% Confidence limits), Acetaminophen (alone or as component of the combination) ([1]; 10 min, N = 20 mice/dose, 95% limits on following lines: alone 162-309, 1:62.1 22.6-40.6, 1:186 37.7-68.5, 1:559 62.6-111) | % MICE BLOCKED ([1]; sodium zomepirac 0 + acetaminophen 54 mg/kg) | % MICE BLOCKED ([1]; sodium zomepirac 0 + acetaminophen 108 mg/kg) | % MICE BLOCKED ([1]; sodium zomepirac 0 + acetaminophen 216 mg/kg) | % MICE BLOCKED ([1]; sodium zomepirac 0 + acetaminophen 432 mg/kg) | ED50 [2] | ED50 at 10 Min. (95% Confidence limits), Sodium Zomepirac (alone or as component of the combination) ([1]; 10 min, N = 20 mice/dose, 95% limits on following lines: alone 1.09-2.12, 1:62.1 0.367-0.649, 1:186 0.204-0.365, 1:559 0.114-0.195) | % MICE BLOCKED ([1]; sodium zomepirac 0.29 + acetaminophen 0 mg/kg) | % MICE BLOCKED ([1]; sodium zomepirac 0.58 + acetaminophen 0 mg/kg) | % MICE BLOCKED ([1]; sodium zomepirac 1.16 + acetaminophen 0 mg/kg) | % MICE BLOCKED ([1]; sodium zomepirac 2.32 + acetaminophen 0 mg/kg) | % MICE BLOCKED ([1]; sodium zomepirac 4.64 + acetaminophen 0 mg/kg)
CC(=O)Nc1ccc(O)cc1 [Acetaminophen, N-(4-hydroxyphenyl)acetamide] | 224 mg/kg | 10% | 30% | 45% | 75% | 216 mg/kg | – | – | – | – | – | –
Cc1cc(CC(=O)O)n(C)c1C(=O)c1ccc(Cl)cc1 [Sodium Zomepirac] | – | – | – | – | – | 1.16 mg/kg | 1.52 mg/kg | 5% | 20% | 35% | 60% | 95%
